Patent US8507464B2, “Phosphoramidate alkylator prodrugs” (Threshold Pharmaceuticals, Inc., priority 2005, dated 2013)
Like-named read-outs stand apart in the source and are kept apart here.

Assays:
NCI-H460 cells [1] = test: Antiproliferation assay - oxygen dependence; assay type: cell-based, human
From the text: . […] The calculated IC50 values (μM) are tabulated in Table Y1 (H460 cells) or Table Y2 (HT29 cells) below.

NCI-H460 cells [2] = test: Antiproliferation assay (Alamar Blue), anoxia vs air
H460 cell line = test: Anti-proliferation assay, hypoxia vs normoxia (Table 1A); details: for IC50: Homo sapiens; for HCR P: ratio of IC50 in normoxia and hypoxia
[3] = assay type: physicochemical; details: glassy carbon, Ag/AgCl reference
[4] = Homo sapiens, NCI-H460, read-out: IC50 in H460 cells, 0.6% O2
[5] = Homo sapiens, NCI-H460; read-out: IC50 in H460 cells, Air
[6] = Homo sapiens, NCI-H460, 2 h, read-out: IC50 H460 Air, air, 2 h exposure
[7] = Homo sapiens, NCI-H460, 2 h, read-out: IC50 H460 Anoxia, anoxia, 2 h exposure
[8] = Homo sapiens, NCI-H460, read-out: IC50 in H460 cells, Air
[9] = Homo sapiens, NCI-H460, read-out: IC50 in H460 cells, N2
[10] = NCI-H460, read-out: Hypoxia P (proliferation IC50)
[11] = NCI-H460, read-out: Normoxia P (proliferation IC50)
[12] = Air; read-out: IC50 in H460 cells, Air
[13] = read-out: IC50 in H460 cells, 0.6% O2
[14] = read-out: IC50 H460 Air, air, 2 h exposure
[15] = read-out: IC50 H460 Anoxia, anoxia, 2 h exposure

Structure (SMILES): C[C@H](CCl)NP(=O)(N[C@H](C)CCl)OCc1ccc(OCc2cnc([N+](=O)[O-])n2C)c(F)c1 [Compound 51]
- IC50 (NCI-H460 cells [1]; [4]): 7 µM
- IC50 (NCI-H460 cells [1]; [5]): 7 µM
- IC50 (NCI-H460 cells [2]; [6]): 7 µM
- IC50 (NCI-H460 cells [2]; [7]): 3 µM

Structure (SMILES): CC(C)[C@@H](CCl)NP(=O)(N[C@H](CCl)C(C)C)OCc1ccc([N+](=O)[O-])o1 [Compound 46]
- IC50 (NCI-H460 cells [1]; [4]): 50 µM
- IC50 (NCI-H460 cells [1]; [5]): 100 µM
- IC50 (NCI-H460 cells [2]; [6]): > 100 µM
- IC50 (NCI-H460 cells [2]; [7]): 5 µM

Structure (SMILES): O=[N+]([O-])c1ccc(COP2(=O)N(CCBr)CCN2CCBr)s1 [Compound 110]
- IC50 (NCI-H460 cells [1]; [4]): 3 µM
- IC50 (NCI-H460 cells [1]; [8]): 25 µM
- IC50 (NCI-H460 cells [1]; [9]): 0.3 µM
- IC50 (NCI-H460 cells [2]; [6]): 21 µM
- IC50 (NCI-H460 cells [2]; [7]): 0.3 µM

Structure (SMILES): Cn1c(COP(=O)(NCCCl)NCCCl)nc(Br)c1[N+](=O)[O-] [Compound 32]
- IC50 (NCI-H460 cells [2]; [6]): 100 µM
- IC50 (NCI-H460 cells [2]; [7]): 50 µM
- IC50 (H460 cell line; [10]): 50 µM
- IC50 (H460 cell line; [11]): 100 µM
- HCR P (H460 cell line): 2

Structure (SMILES): Cc1csc(C(C)OP(=O)(NCCCl)NCCCl)c1[N+](=O)[O-] (centres unmarked) [Compound 100]
- IC50 (NCI-H460 cells [1]; [12]): 35 µM
- IC50 (NCI-H460 cells [1]; N2; read-out: IC50 in H460 cells, N2): 0.5 µM
- IC50 (NCI-H460 cells [1]; [13]): 10 µM
- IC50 (NCI-H460 cells [2]; [14]): 35 µM
- IC50 (NCI-H460 cells [2]; [15]): 0.5 µM

Structure (SMILES): Cn1c(COc2ccc(COP(=O)(NCCBr)NCCBr)cc2F)cnc1[N+](=O)[O-] [Compound 50]
- IC50 (NCI-H460 cells [1]; [4]): 3 µM
- IC50 (NCI-H460 cells [1]; [8]): 3 µM
- IC50 (NCI-H460 cells [2]; [6]): 3 µM
- IC50 (NCI-H460 cells [2]; [7]): 0.1 µM

Structure (SMILES): CCCn1c(COP(=O)(NCCBr)NCCBr)cnc1[N+](=O)[O-] [Compound 84]
- IC50 (NCI-H460 cells [1]; [4]): 3 µM
- IC50 (NCI-H460 cells [1]; [8]): 40 µM
- IC50 (NCI-H460 cells [2]; [6]): 40 µM
- IC50 (NCI-H460 cells [2]; [7]): 0.003 µM

Structure (SMILES): Cn1c(COc2ccc(COP(=O)(NCCCl)NCCCl)cc2F)cnc1[N+](=O)[O-] [Compound 27]
- IC50 (NCI-H460 cells [2]; [6]): 100 µM
- IC50 (H460 cell line; [10]): 2.5 µM
- IC50 (H460 cell line; [11]): 100 µM
- HCR P (H460 cell line): 40

Structure (SMILES): CC#Cc1cc(COP(=O)(NCCBr)NCCBr)sc1[N+](=O)[O-] [Compound 99]
- IC50 (NCI-H460 cells [1]; [12]): 1 µM
- IC50 (NCI-H460 cells [1]; [13]): 0.5 µM
- IC50 (NCI-H460 cells [2]; [14]): 1 µM
- IC50 (NCI-H460 cells [2]; [15]): 0.1 µM

Structure (SMILES): C[C@H](CBr)NP(=O)(N[C@H](C)CBr)OCc1cnc([N+](=O)[O-])n1C [Compound 66]
- IC50 (NCI-H460 cells [1]; [13]): 20 µM
- IC50 (NCI-H460 cells [1]; read-out: IC50 in H460 cells, N2): 0.3 µM
- IC50 (NCI-H460 cells [2]; read-out: IC50 H460 Anoxia): 0.3 µM

Structure (SMILES): CCN(CCOP(=O)(NCCBr)NCCBr)C(=O)OCc1cnc([N+](=O)[O-])n1C [Compound 62]
- IC50 (NCI-H460 cells [1]; [4]): 30 µM
- IC50 (NCI-H460 cells [1]; [8]): 45 µM
- IC50 (NCI-H460 cells [1]; [9]): 2 µM
- IC50 (NCI-H460 cells [2]; [6]): 45 µM
- IC50 (NCI-H460 cells [2]; [7]): 2 µM

Structure (SMILES): CC(C)[C@H](CCl)NP(=O)(N[C@@H](CCl)C(C)C)OCc1ccc([N+](=O)[O-])s1 [Compound 44]
- IC50 (NCI-H460 cells [1]; [4]): 45 µM
- IC50 (NCI-H460 cells [1]; [5]): > 100 µM
- IC50 (NCI-H460 cells [2]; [6]): 100 µM
- IC50 (NCI-H460 cells [2]; [7]): 3 µM

Structure (SMILES): Cn1c(COc2ccc(COP(N)(=O)N(CCCl)CCCl)cc2F)cnc1[N+](=O)[O-] (centres unmarked) [Compound 22]
- IC50 (NCI-H460 cells [2]; [6]): 16 µM
- IC50 (NCI-H460 cells [2]; [7]): 0.7 µM
- IC50 (H460 cell line; [10]): 0.7 µM
- IC50 (H460 cell line; [11]): 16 µM
- HCR P (H460 cell line): 23

Structure (SMILES): CC(C)[C@@H](CCl)NP(=O)(N[C@H](CCl)C(C)C)OCc1ccc([N+](=O)[O-])s1 [Compound 47]
- IC50 (NCI-H460 cells [1]; [4]): 60 µM
- IC50 (NCI-H460 cells [1]; [5]): 100 µM
- IC50 (NCI-H460 cells [2]; [6]): > 100 µM
- IC50 (NCI-H460 cells [2]; [7]): 4 µM

Structure (SMILES): CC(OP(=O)(NCCBr)NCCBr)c1ccc([N+](=O)[O-])cc1 (centres unmarked) [Compound 78]
- IC50 (NCI-H460 cells [2]; [6]): > 100 µM
- IC50 (NCI-H460 cells [2]; [7]): > 100 µM
- Reduction Potentials, 100 mV/sec ([3]; scan rate 100 mV/sec): −704 mV
- Reduction Potentials, 10,000 mV/sec ([3]; scan rate 10,000 mV/sec): −746 mV

Structure (SMILES): Cn1c(COP2(=O)N(CCCl)CCN2CCCl)cnc1[N+](=O)[O-] [Compound S2]
- IC50 (H460 cell line; [10]): 7 µM
- IC50 (H460 cell line; [11]): > 100 µM
- HCR P (H460 cell line): >14

Structure (SMILES): CC(OP(N)(=O)N(CCCl)CCCl)c1ncc([N+](=O)[O-])n1C (centres unmarked) [Compound 2]
- IC50 (NCI-H460 cells [2]; [6]): > 100 µM
- IC50 (NCI-H460 cells [2]; [7]): 8 µM
- IC50 (H460 cell line; [10]): 8 µM
- IC50 (H460 cell line; [11]): > 100 µM
- HCR P (H460 cell line): >12

Structure (SMILES): CN(CCCl)P(=O)(OCc1ncc([N+](=O)[O-])n1C)N(C)CCCl [Compound 9]
- IC50 (NCI-H460 cells [2]; [6]): > 100 µM
- IC50 (NCI-H460 cells [2]; [7]): > 10 µM
- IC50 (H460 cell line; [10]): > 10 µM
- IC50 (H460 cell line; [11]): > 100 µM
- HCR P (H460 cell line): >10

Structure (SMILES): O=[N+]([O-])c1cnc(-c2ccc(COP(=O)(NCCBr)NCCBr)cc2)s1 [Compound 63]
- IC50 (NCI-H460 cells [1]; [4]): 15 µM
- IC50 (NCI-H460 cells [1]; [8]): 8 µM
- IC50 (NCI-H460 cells [1]; [9]): 1 µM
- IC50 (NCI-H460 cells [2]; [6]): 8 µM
- IC50 (NCI-H460 cells [2]; [7]): 1 µM

Structure (SMILES): COc1cc(COP(=O)(NCCBr)NCCBr)ccc1OCc1cnc([N+](=O)[O-])n1C [Compound 56]
- IC50 (NCI-H460 cells [1]; [4]): 8 µM
- IC50 (NCI-H460 cells [1]; [8]): 10 µM
- IC50 (NCI-H460 cells [1]; [9]): 0.5 µM
- IC50 (NCI-H460 cells [2]; [6]): 10 µM
- IC50 (NCI-H460 cells [2]; [7]): 0.5 µM

Structure (SMILES): CN(C)P(=O)(OCc1cnc([N+](=O)[O-])n1C)N(CCCl)CCCl (centres unmarked) [Compound 4]
- IC50 (NCI-H460 cells [2]; [6]): > 100 µM
- IC50 (NCI-H460 cells [2]; [7]): 40 µM
- IC50 (H460 cell line; [10]): 40 µM
- IC50 (H460 cell line; [11]): > 100 µM
- HCR P (H460 cell line): >2
